The target of data set [1] is T1, human histamine H3 receptor (hH3R) (Homo sapiens, UniProt Q9Y5N1).
T1 construct: expressed in transfected cells
Briefly: radioligand displacement binding assay, [3H]Nα-methylhistamine, HEK293 cells stably expressing hH3R. The note with it: HEK293 cells stably expressing human H3R, mean (95% CI). The procedure:
[^3H]N^α-methylhistamine was used as a radioligand.
The radioligand displacement binding assay was carried out in HEK-293 cells stably expressing the recombinant hH3R as described by Kottke et al. with slight modifications. […] Obtained data from at least three experiments (in at least duplicates) were analyzed with GraphPad Prism 6.1 (San Diego, CA, USA) using nonlinear regression (one-site competition on logarithmic scale), and Ki values were transformed from IC50 according to Cheng-Prusoff. Statistical analysis was performed on −log Ki values.
In general terms: In a radioligand displacement assay an active substance lowers the binding of a labelled ligand.

For data set [2], the target named is T2, hMAO B (Homo sapiens, UniProt P27338).
T2 construct: purchased Sigma Aldrich M7441
T2 sequence (P27338 1-520): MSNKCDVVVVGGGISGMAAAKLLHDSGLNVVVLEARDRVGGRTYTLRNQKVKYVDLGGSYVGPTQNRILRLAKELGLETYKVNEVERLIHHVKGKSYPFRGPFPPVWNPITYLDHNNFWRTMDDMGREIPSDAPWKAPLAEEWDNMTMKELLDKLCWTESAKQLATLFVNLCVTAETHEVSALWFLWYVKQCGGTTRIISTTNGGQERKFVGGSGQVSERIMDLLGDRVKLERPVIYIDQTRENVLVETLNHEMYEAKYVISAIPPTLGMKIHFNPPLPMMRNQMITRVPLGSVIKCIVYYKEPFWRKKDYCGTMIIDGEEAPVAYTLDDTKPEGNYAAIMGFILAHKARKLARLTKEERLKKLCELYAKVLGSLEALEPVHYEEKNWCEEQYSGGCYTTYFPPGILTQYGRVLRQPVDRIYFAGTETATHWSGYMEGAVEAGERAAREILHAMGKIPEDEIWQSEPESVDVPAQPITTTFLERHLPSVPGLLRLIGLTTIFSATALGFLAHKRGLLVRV
The data set is described as follows: hMAO B inhibition, fluorometric Amplex Red MAO assay. The format is biochemical. The note with it: mean ± SEM of 2-5 independent experiments; p-tyramine 200 μM.

In another data set the target is T3, human MAO A (Homo sapiens, UniProt P21397).
T3 construct: purchased Sigma Aldrich M7316
T3 sequence (P21397 1-527): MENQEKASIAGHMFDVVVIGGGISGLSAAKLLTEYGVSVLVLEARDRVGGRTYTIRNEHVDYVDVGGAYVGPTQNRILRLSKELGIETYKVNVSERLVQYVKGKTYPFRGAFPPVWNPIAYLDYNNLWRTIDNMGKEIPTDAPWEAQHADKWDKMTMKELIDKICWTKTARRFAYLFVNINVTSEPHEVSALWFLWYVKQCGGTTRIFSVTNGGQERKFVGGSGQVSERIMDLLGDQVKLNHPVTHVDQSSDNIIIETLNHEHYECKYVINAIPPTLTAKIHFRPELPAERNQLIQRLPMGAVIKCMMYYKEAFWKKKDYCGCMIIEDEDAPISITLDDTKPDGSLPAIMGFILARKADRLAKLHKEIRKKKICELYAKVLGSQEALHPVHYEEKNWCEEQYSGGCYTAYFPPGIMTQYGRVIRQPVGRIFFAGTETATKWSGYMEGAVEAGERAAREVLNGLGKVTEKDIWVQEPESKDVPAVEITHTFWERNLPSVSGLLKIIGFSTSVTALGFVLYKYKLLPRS
Briefly: hMAO A inhibition, fluorometric Amplex Red MAO assay. In kind it is biochemical. Particulars: for IC50: mean ± SEM, p-tyramine 200 μM; for inhibition at 10 µM: percent of inhibition at 10 μM, mean of two independent experiments, read-out: MAO A (%Inh.). The procedure:
Inhibitory potency of compounds on MAO isoenzymes were carried out by a fluorometric method with a commercial Amplex™ Red Monoamine Oxidase Assay Kit (ThermoFisher Scientific A12214, Waltham, MA, USA) as described previously. For all tests, recombinant human MAO B and MAO A (from Sigma AldrichM7441 and M7316, Darmstadt, Germany) were used. Inhibitors’ activity was measured in the presence of p-tyramine (200 μM).
[…] […] All calculations were made in Microsoft Excel and GraphPadPrism software. All experiments were performed in duplicate, and data are expressed as mean ± SEM of 2–5 independent experiments.

Data set [3] relates to haloperidol-induced catalepsy. Briefly: haloperidol-induced catalepsy, bar test. In kind it is in vivo, Wistar rats. Particulars: mean ± SEM (n = 6). As for the experimental part:
(§1) Haloperidol (dopamine D2 antagonist)-induced catalepsy in rodents is a popular model for screening of antiparkinsonian activity of compounds [21]. Caused symptoms in animals are similar to the inability of PD patients to initiate movements. […] The reversal of catalepsy was tested for 6 min (3 times in 3 min intervals) after 1 h of haloperidol administration. As the reference compound was used MSX-3, the adenosine A2A receptor antagonist with confirmed ability to reverse catalepsy mediated by D1 and D2 receptor antagonists.
Haloperidol-induced catalepsy was not reduced by DL-76 administrated at a dose of 25 mg/kg body weight (Table 3). After administration of DL-76 at a dose of 50 mg/kg body weight, low antiparkinsonian activity in the bar test was observed. […] This effect was weaker than the anti-Parkisonian activity of MSX-3.
(§2) The experiments were carried out on male rats Wistar (180–220 g). Animals were housed in plastic cages in room at a constant temperature of 20 ± 2 °C with natural light–dark cycles. The animals had free access to standard pellet diet and water and were used after a minimum of 3 days of acclimatization to the housing conditions. Control and experimental groups consisted of 6 animals each. All experimental procedures were performed according to the European Union Directive of 22 September 2010 (2010/63/EU) and Polish legislation concerning animal care and use and was approved by the Local Ethics Committee for Experiments on Animals in Kraków, Poland (Resolution No. 70/2014, approval date: 20 May 2014). The examined compound was administered as the suspension in 0.5% methylcellulose in constant volume of 10 mL/kg.
(§3) Antiparkinsonian activity in catalepsy tests was performed as described in [28]. Haloperidol was administered s.c. at a dose of 0.63 mg/kg, which in 100% of control animals caused catalepsy. Tested compounds were administered i.p. at the doses 50 and 25 mg/kg body weight, 5 min after haloperidol injection. After 60 min from the injection of haloperidol, to assess the occurrence of catalepsy, the animals were placed in a forced position and the time they remained in this position was measured. Two tests were performed to determine the antiparkinsonian activity: crossed leg position test and bar test. In the first test, the animals were put on the hind paws behind the front (forced position); in the second, the animals were supported on a wooden block (the front paws were placed on a block suspended 10 cm above the ground). Then, the time that the animals remain is measured in a forced position (time was measured to a maximum of 60 s). Observation was carried out 3 times in 3-min intervals. The shortening of the time of catalepsy to the control group was adopted for the antiparkinsonian activity.

The subject of data set [4] is haloperidol-induced catalepsy. Briefly: haloperidol-induced catalepsy, crossed-leg position test. In kind it is in vivo, Wistar rats. The note with it: mean ± SEM (n = 6). As for the experimental part:
as §1, §2, §3

Data set [5] deals with T2, hMAO B. Briefly: hMAO B reversibility studies. In kind it is biochemical. Particulars: inhibitor at IC80; for effect of 30 min preincubation with enzyme on hMAO B inhibition: with vs without preincubation. The procedure: Reversibility of MAO B inhibitors was tested as described previously with slight modification. Two experiments were performed simultaneously. In the first experiment, inhibitors (in concentrations corresponding to their IC80 values) were incubated with the enzyme and p-tyramine (10 μM) for 22 min (measuring fluorescence every two minutes).

Structures are written as SMILES. Where only a bound is given, the exact number is not on record here.

T1 sequence (Q9Y5N1 whole entry): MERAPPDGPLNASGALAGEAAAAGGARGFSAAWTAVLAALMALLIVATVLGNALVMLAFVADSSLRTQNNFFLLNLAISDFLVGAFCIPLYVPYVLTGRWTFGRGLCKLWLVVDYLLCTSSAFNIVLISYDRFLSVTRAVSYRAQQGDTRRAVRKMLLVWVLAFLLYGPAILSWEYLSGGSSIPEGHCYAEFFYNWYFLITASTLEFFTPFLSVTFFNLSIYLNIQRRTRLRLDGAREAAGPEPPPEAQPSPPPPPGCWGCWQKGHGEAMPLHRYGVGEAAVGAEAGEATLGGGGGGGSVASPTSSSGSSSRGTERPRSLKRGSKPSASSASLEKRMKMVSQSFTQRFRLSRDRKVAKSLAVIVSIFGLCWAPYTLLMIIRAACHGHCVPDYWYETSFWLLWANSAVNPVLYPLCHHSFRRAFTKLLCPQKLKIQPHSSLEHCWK

A word on the Ki: it is a measure of affinity in units of concentration, obtained from inhibition or displacement. High values mean a looser hold on the target, low ones a stronger hold on the target. What is called IC50 is the concentration needed to halve the response being measured. High values mean lower potency, low ones higher potency. Usually melting point stands for the temperature, or range, at which the solid turns liquid. With `CC(C)(C)c1ccc(OCCCN2CCCCCC2)cc1.O=C(O)C(=O)O` [Compound 28, 1-(3-(4-tert-Butylphenoxy)propyl)-azepane hydrogen oxalate], the melting point was in the range of 138 to 140 °C. The molecule further gave a Ki in data set [1] of 111 nM. Moreover, the midpoint of inhibition at hMAO B [2], the IC50, lay at 45 ± 4 nM. For the same molecule, at human MAO A, the half-maximal inhibitory concentration (IC50) was over 10000 nM.

The molecule `CC1(C)CCCN(CCCCCCOc2ccc(C(C)(C)C)cc2)C1.O=C(O)C(=O)O` [Compound 19, 1-(6-(4-tert-Butylphenoxy)hexyl)-3,3-dimethylpiperidine hydrogen oxalate] displayed a melting point of 122 to 125 °C. In data set [1], the inhibitory constant (Ki) was found to be 2580 nM. On human MAO A, the IC50 was over 10000 nM and the inhibition at 10 µM turned out to be 24%.

For the molecule `C#CCn1c(=O)c2c(nc(/C=C/c3cccc(OC)c3)n2C)n(CCCOP(=O)(O)O)c1=O.[Na].[Na]` [MSX-3, (E)-phosphoric acid mono-[3-[8-[2-(3-methoxyphenyl)vinyl]-7-methyl-2,6-dioxo-1-prop-2-ynyl-1,2,6,7-tetrahydro-purin-3-yl]propyl] ester disodium salt, reference compound], the “Times of Observation of Catalepsy (s), 0 min” value in data set [3] (25 mg/kg i.p.), in data set [3] (50 mg/kg i.p.), in data set [4] (25 mg/kg) and in data set [4] (50 mg/kg) was 0 ± 0 s in each case. Also, the “Times of Observation of Catalepsy (s), 3 min” value in data set [3] (25 mg/kg i.p.), in data set [3] (50 mg/kg i.p.), in data set [4] (25 mg/kg) and in data set [4] (50 mg/kg) was 0 ± 0 s each time. Moreover, the “Times of Observation of Catalepsy (s), 6 min” value in data set [3] (25 mg/kg i.p.), in data set [3] (50 mg/kg i.p.), in data set [4] (25 mg/kg) and in data set [4] (50 mg/kg) was 0 ± 0 s each time.

In turn, `CC1CCCN(CCCOc2ccc(C(C)(C)C)cc2)C1.O=C(O)C(=O)O` (centres unmarked) [Compound 12, 1-(3-(4-tert-Butylphenoxy)propyl)-3-methylpiperidine hydrogen oxalate] yielded a melting point of 141 to 143 °C. Moreover, in data set [1], the affinity, expressed as Ki, was 98 nM. The molecule further displayed an IC50 on hMAO B [2] of 117 ± 12 nM. The same molecule displayed an IC50 at human MAO A of over 10000 nM.

With `CC1(C)CCCN(CCCOc2ccc(C(C)(C)C)cc2)C1.O=C(O)C(=O)O` [Compound 16, 1-(3-(4-tert-Butylphenoxy)propyl)-3,3-dimethylpiperidine hydrogen oxalate], the melting point fell in the range of 183 to 186 °C. In data set [1], this molecule returned a Ki of 1620 nM. This molecule also came in with a 50% inhibitory concentration (IC50) against hMAO B [2] of 476 ± 38 nM. Further, on human MAO A, the concentration for half-maximal inhibition (IC50) was over 10000 nM.

`CC1(C)CCCN(CCCCCOc2ccc(C(C)(C)C)cc2)C1.O=C(O)C(=O)O` [Compound 18, 1-(5-(4-tert-Butylphenoxy)pentyl)-3,3-dimethylpiperidine hydrogen oxalate]: the melting point lay within 150 to 153 °C. The molecule further displayed a Ki in data set [1] of 3540 nM. For the same molecule, on human MAO A, the IC50 is over 10000 nM and the inhibition at 10 µM stood at 19%.

Turning to `CC1CCCCN1CCCCOc1ccc(C(C)(C)C)cc1.O=C(O)C(=O)O` (centres unmarked) [Compound 10, 1-(4-(4-tert-Butylphenoxy)butyl)-2-methylpiperidine hydrogen oxalate], the melting point was 107 to 110 °C. This molecule also came in with a Ki in data set [1] of 153 nM. At hMAO B [2], this molecule came in with an IC50 of 475 ± 38 nM. This molecule also had an IC50 on human MAO A of over 10000 nM.

With `CC(C)(C)c1ccc(OCCCCN2CCCCC2)cc1.O=C(O)C(=O)O` [Compound 6, 1-(4-(4-tert-Butylphenoxy)butyl)piperidine hydrogen oxalate], the melting point was 150 to 152 °C. In data set [1], this molecule had a Ki of 309 nM. This molecule gave a concentration for half-maximal inhibition (IC50) against hMAO B [2] of 290 ± 7 nM. Further, on human MAO A, the IC50 was over 10000 nM.

In the case of `CC(C)(C)c1ccc(OCCCCN2CCCCCC2)cc1.O=C(O)C(=O)O` [Compound 29, 1-(4-(4-tert-Butylphenoxy)butyl)-azepane hydrogen oxalate], the melting point was in the range of 149 to 151 °C. The molecule further yielded an inhibitory constant (Ki) in data set [1] of 299 nM. In addition, on human MAO A, the concentration for half-maximal inhibition (IC50) was over 10000 nM and the inhibition at 10 µM was found to be 23%.

In turn, `CC(C)(C)c1ccc(OCCCN2CCCC2)cc1.O=C(O)C(=O)O` [Compound 5, 1-(3-(4-tert-Butylphenoxy)propyl)pyrrolidine hydrogen oxalate] yielded a melting point of 147 to 149 °C. In data set [1], this molecule returned an inhibitory constant (Ki) of 371 nM. The molecule also displayed a half-maximal inhibitory concentration (IC50) against hMAO B [2] of 2.7 ± 0.4 nM. The “effect of 30 min preincubation with enzyme on hMAO B inhibition” value at hMAO B [5] is “did not show differences between experiments with and without the preincubation”. Further, the “type of hMAO B inhibition (reversible or irreversible)” value on hMAO B [5] (without preincubation, compared with safinamide and rasagiline) is “reversible”.

Take `C[C@H](NCc1ccc(OCc2cccc(F)c2)cc1)C(N)=O` [safinamide, reference compound]: the “effect of 30 min preincubation with enzyme on hMAO B inhibition” value at hMAO B [5] is “did not show differences between experiments with and without the preincubation”.

The values are drawn from article PMC7279487, “Dual Target Ligands with 4-tert-Butylphenoxy Scaffold as Histamine H3 Receptor Antagonists and Monoamine Oxidase B Inhibitors” (International Journal of Molecular Sciences, 2020).
